Assays:
[1] = target: T1, menin/MLL (terbium chelate-labeled menin, FITC-MBM1 peptide) (Homo sapiens, UniProt O00255, T541A); experiment: Menin/MLL homogenous time-resolved fluorescence (HTRF) assay; type: binding; settings: 30 min incubation
T1 construct: Menin (a.a 1-610-6xhis tag)
T1 sequence (O00255 with tags, fused parts or gaps T541A): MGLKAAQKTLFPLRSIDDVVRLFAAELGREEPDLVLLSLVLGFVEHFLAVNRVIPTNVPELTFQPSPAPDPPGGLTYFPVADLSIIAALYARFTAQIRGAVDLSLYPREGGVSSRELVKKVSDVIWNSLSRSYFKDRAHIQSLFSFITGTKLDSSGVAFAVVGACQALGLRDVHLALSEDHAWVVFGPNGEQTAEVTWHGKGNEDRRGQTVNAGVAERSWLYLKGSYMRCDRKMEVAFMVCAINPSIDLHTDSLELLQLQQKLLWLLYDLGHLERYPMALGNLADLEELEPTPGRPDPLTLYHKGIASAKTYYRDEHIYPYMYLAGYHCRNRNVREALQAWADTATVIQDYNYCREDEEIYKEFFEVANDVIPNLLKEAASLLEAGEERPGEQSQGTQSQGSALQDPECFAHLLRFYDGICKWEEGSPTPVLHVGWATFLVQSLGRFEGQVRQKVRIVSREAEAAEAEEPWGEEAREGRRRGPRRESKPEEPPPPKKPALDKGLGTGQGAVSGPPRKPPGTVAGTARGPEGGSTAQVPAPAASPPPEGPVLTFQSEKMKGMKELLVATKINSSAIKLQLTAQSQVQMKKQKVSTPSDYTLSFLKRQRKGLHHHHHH
Summary of the method: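 Percent inhibition, calculated from the 520/490 nm HTRF ratio against high and low controls, was fitted for IC50 with a 0.1 nM detection limit. Reactions held 200 pM Tb-menin and 75 nM FITC-MBM1 in pH 7.5 Tris buffer with 0.5% DMSO.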

MOLM14 cells = experiment: Proliferation assay, spheroid-like growth, MOLM14 (MLL-AF9 rearranged); type: cell-based, human; settings: Homo sapiens, MOLM-14, 192 h, 8 days, confluence as measure of spheroid size, read-out: spheroid assay_OneTime MOLM14 IC50
Summary of the method: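 Seed cells at linear-growth densities in low-attachment wells; add test compound at several concentrations, normalized to 0.3% DMSO; incubate 8 days at 37 °C; image spheroids and measure confluence; calculate absolute IC50 against DMSO and reference-compound controls.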

Row | IC50 [1] [nM] | IC50 (MOLM14 cells) [nM] | SMILES
1 | 0.17 | 9 | CO[C@H]1[C@@H]2CN([C@H]3C[C@@H]([C@H](C(C)C)N4CC5(CCN(c6ncnnc6Oc6ccc(F)cc6-c6nnc(C)cc6C6CC6)C5)C4)C3)C[C@@H]21 [Compound 402]
2 | 0.144 | 6.4 | CO[C@H]1CCN([C@H]2C[C@@H]([C@H](C(C)C)N3CC4(CCN(c5ncnnc5Oc5ccc(F)cc5-c5nnc(C)cc5C5CC5)C4)C3)C2)C1 [Compound 398]
3 | 0.15 | 4 | CC(C)[C@H]([C@H]1C[C@@H](Nc2nnc(N)s2)C1)N1CC2(CCN(c3ncnnc3Oc3ccc(F)cc3-c3cncnc3C3CC3)C2)C1 (single isomer, unassigned) [Compound 447]
4 | 0.11 | < 1.8 | CC(=O)Nc1cc(NC2CC(C(C(C)C)N3CC4(CCN(c5ncnnc5Oc5ccc(F)cc5-c5cncnc5C5CC5)C4)C3)C2)ccn1 (stereo not shown) [Compound 407]
5 | 0.08 | 7 | CNC(=O)c1cccc(N[C@H]2C[C@@H](C(C(C)C)N3CC4(CCN(c5ncnnc5Oc5ccc(F)cc5-c5cncnc5C5CC5)C4)C3)C2)n1 (single isomer, unassigned) [Compound 450]
6 | 0.16 | < 1.8 | CC(C)[C@H]([C@H]1C[C@@H](Nc2ccn3ccnc3n2)C1)N1CC2(CCN(c3ncnnc3Oc3ccc(F)cc3-c3cncnc3C3CC3)C2)C1 (single isomer, unassigned) [Compound 412]
7 | 0.05 | 6 | CNC(=O)c1csc(N[C@H]2C[C@@H]([C@@H](C(C)C)N3CC4(CCN(c5ncnnc5Oc5ccc(F)cc5-c5cncnc5C5CC5)C4)C3)C2)n1 (single isomer, unassigned) [Compound 453]
8 | 0.13 | < 1.8 | CNC(=O)[C@H]1CCN([C@H]2C[C@@H]([C@H](C(C)C)N3CC4(CCN(c5ncnnc5Oc5ccc(F)cc5-c5cnc(C)nc5C5CC5)C4)C3)C2)C1 [Compound 393]
9 | 0.27 | 89 | CC(C)[C@H]([C@H]1C[C@@H](Nc2ccc3[nH]c(=O)[nH]c3c2)C1)N1CC2(CCN(c3ncnnc3Oc3ccc(F)cc3-c3cncnc3C3CC3)C2)C1 (single isomer, unassigned) [Compound 462]
10 | 0.1 | 6 | CC(C)[C@@H]([C@H]1C[C@@H](N2CCC3(CCO3)C2)C1)N1CC2(CCN(c3ncnnc3Oc3ccc(F)cc3-c3nnccc3C3CC3)C2)C1 (single isomer, unassigned) [Compound 268]
11 | 0.05 | 1.8 | CNC(=O)c1cnc(N[C@H]2C[C@@H]([C@@H](C(C)C)N3CC4(CCN(c5ncnnc5Oc5ccc(F)cc5-c5cnc(C)nc5C5CC5)C4)C3)C2)s1 (single isomer, unassigned) [Compound 417]
12 | 0.026 | < 1.8 | Cc1ncc(-c2cc(F)ccc2Oc2nncnc2N2CCC3(C2)CN([C@@H](C(C)C)[C@H]2C[C@@H](N4C[C@@H]5[C@H](C4)[C@H]5NC(=O)C4CC4)C2)C3)c(C2CC2)n1 [Compound 385]
13 | 0.08 | 4 | CNC(=O)c1sc(N[C@H]2C[C@@H]([C@@H](C(C)C)N3CC4(CCN(c5ncnnc5Oc5ccc(F)cc5-c5cncnc5C5CC5)C4)C3)C2)nc1C (single isomer, unassigned) [Compound 443]
14 | 0.1 | 10 | CNC(=O)CCN(C)[C@H]1C[C@@H]([C@@H](C(C)C)N2CC3(CCN(c4ncnnc4Oc4ccc(F)cc4-c4cncnc4C4CC4)C3)C2)C1 (single isomer, unassigned) [Compound 350]
15 | 0.11 | 3.4 | Cc1nnc(-c2cc(N[C@H]3C[C@@H]([C@@H](C(C)C)N4CC5(CCN(c6ncnnc6Oc6ccc(F)cc6-c6cncnc6C6CC6)C5)C4)C3)ccn2)[nH]1 (single isomer, unassigned) [Compound 430]
16 | 2.4 | 280 | CO[C@H]1[C@@H]2CN([C@H]3C[C@@H]([C@H](C(C)C)N4CC5(CCN(c6ncnnc6Oc6ccc(F)cc6-c6cnncc6C6CC6)C5)C4)C3)C[C@@H]21 (single isomer, unassigned) [Compound 282a]

Row | IC50 [1] [nM] | IC50 (MOLM14 cells) [nM] | SMILES
17 | 0.13 | < 1.8 | CNC(=O)Nc1cc(N[C@H]2C[C@@H](C(C(C)C)N3CC4(CCN(c5ncnnc5Oc5ccc(F)cc5-c5cncnc5C5CC5)C4)C3)C2)ccn1 (single isomer, unassigned) [Compound 421]
18 | 0.17 | 8.9 | CNC(=O)c1cnc(N[C@H]2C[C@@H]([C@@H](C(C)C)N3CC4(CCN(c5ncnnc5Oc5ccc(F)cc5-c5cnc(C)nc5C5CC5)C4)C3)C2)o1 (single isomer, unassigned) [Compound 416]
19 | 1.9 | 270 | CC(C)[C@H]([C@H]1C[C@@H](N2CCNC(=O)C2)C1)N1CC2(CCN(c3ncnnc3Oc3ccc(F)cc3-c3cncnc3C3CC3)C2)C1 (single isomer, unassigned) [Compound 240]
20 | 0.2 | 23 | CC(=O)N1CCCN([C@H]2C[C@@H]([C@@H](C(C)C)N3CC4(CCN(c5ncnnc5Oc5ccc(F)cc5-c5cncnc5C5CC5)C4)C3)C2)CC1 (single isomer, unassigned) [Compound 61]
21 | 0.07 | 11 | CNC(=O)c1oc(N[C@H]2C[C@@H](C(C(C)C)N3CC4(CCN(c5ncnnc5Oc5ccc(F)cc5-c5cncnc5C5CC5)C4)C3)C2)nc1C (single isomer, unassigned) [Compound 460]
22 | 0.14 | 220 | CC(C)[C@H]([C@H]1C[C@@H](Nc2ccnc(NS(C)(=O)=O)n2)C1)N1CC2(CCN(c3ncnnc3Oc3ccc(F)cc3-c3cncnc3C3CC3)C2)C1 (single isomer, unassigned) [Compound 408]
23 | 0.16 | 4 | CNC(=O)c1coc(N[C@H]2C[C@@H](C(C(C)C)N3CC4(CCN(c5ncnnc5Oc5ccc(F)cc5-c5cncnc5C5CC5)C4)C3)C2)n1 (single isomer, unassigned) [Compound 438]
24 | 0.11 | 20 | CNC(=O)c1ccnc(N[C@H]2C[C@@H]([C@@H](C(C)C)N3CC4(CCN(c5ncnnc5Oc5ccc(F)cc5-c5cncnc5C5CC5)C4)C3)C2)n1 (single isomer, unassigned) [Compound 452]
25 | 0.14 | 8.1 | CC(=O)N1CC2(CCN([C@H]3C[C@@H]([C@H](C(C)C)N4CC5(CCN(c6ncnnc6Oc6ccc(F)cc6-c6cnc(C)nc6C6CC6)C5)C4)C3)C2)C1 [Compound 381]
26 | 0.09 | 8.4 | CNC(=O)c1ncc(N[C@H]2C[C@@H]([C@@H](C(C)C)N3CC4(CCN(c5ncnnc5Oc5ccc(F)cc5-c5cncnc5C5CC5)C4)C3)C2)s1 (single isomer, unassigned) [Compound 449]
27 | 0.3 | 32 | CC(C)[C@H]([C@H]1C[C@@H](N2CCC3(CN(C)C(=O)O3)C2)C1)N1CC2(CCN(c3ncnnc3Oc3ccc(F)cc3-c3cncnc3C3CC3)C2)C1 (single isomer, unassigned) [Compound 329]
28 | 0.15 | 11 | CNC(=O)c1cc(N[C@H]2C[C@@H]([C@@H](C(C)C)N3CC4(CCN(c5ncnnc5Oc5ccc(F)cc5-c5cncnc5C5CC5)C4)C3)C2)ccn1 (single isomer, unassigned) [Compound 451]
29 | 0.14 | 5 | COc1cc(N[C@H]2C[C@@H]([C@@H](C(C)C)N3CC4(CCN(c5ncnnc5Oc5ccc(F)cc5-c5cncnc5C5CC5)C4)C3)C2)cnn1 (single isomer, unassigned) [Compound 419]
30 | 0.11 | 2 | Cc1ncc(-c2cc(F)ccc2Oc2nncnc2N2CCC3(C2)CN([C@@H](C(C)C)[C@H]2C[C@@H](N4CC5(CN(C(=O)C6CC6)C5)C4)C2)C3)c(C2CC2)n1 [Compound 392]
31 | 0.2 | 2 | CC(C)[C@@H]([C@H]1C[C@@H](N2CCC3(CCCO3)C2)C1)N1CC2(CCN(c3ncnnc3Oc3ccc(F)cc3-c3nnccc3C3CC3)C2)C1 (single isomer, unassigned) [Compound 270]
32 | 0.04 | 2.3 | Cc1ncc(-c2cc(F)ccc2Oc2nncnc2N2CCC3(C2)CN([C@@H](C(C)C)[C@H]2C[C@@H](N4CC[C@H](C(=O)N(C)C)C4)C2)C3)c(C2CC2)n1 [Compound 383]
